Test results from patent US20220016277A1, “MACROCYCLIC COMPLEXES OF RADIONUCLIDES AND THEIR USE IN RADIOTHERAPY OF CANCER” (Cornell University, priority 2018, published 2022).

Test: Organ distribution of ^225Ac complexes following intravenous injection in mice
Format: in vivo, C57BL/6 mice
Protocol: In Vivo Biodistribution of ^225Ac Complexes of Macropa and DOTA. All experiments were approved by the Institutional Animal Care Committee (IACC) of the University of British Columbia and were performed in accordance with the Canadian Council on Animal Care Guidelines. A total of 9 female C57BL/6 mice (6-8 weeks old, 20-25 g) were used for the biodistribution study of each radiometal complex, n=3 for each time point.
Macropa (100 μL of a 1 mg/mL solution in NH4OAc) was diluted with 387 μL of NH4OAc (1 M, pH 7), and an aliquot (203 μL) of ^225Ac(NO3)3 (˜157 kBq) was then added; the pH of this solution was adjusted to 6.5-7 by the addition of 1 M NaOH (210 μL, trace metal grade). After 5 min at ambient temperature, the reaction solution was analyzed by TLC (0.4 M pH 4 sodium citrate as the eluent), which confirmed >95% radiochemical yield. The reaction was allowed to proceed overnight, and the radiochemical yield was again confirmed to be >95% the following morning. At this time, mice were anesthetized by 2% isoflurane, and approximately 100 μL (10-15 kBq) of the [^225Ac(macropa)]^+ complex were injected into the tail vein of each mouse. After injection, mice were allowed to recover and roam freely in their cages, and were euthanized by CO2 inhalation at 15 min, 1 h, or 5 h (n=3 at each time point) post-injection. Blood was collected by cardiac puncture and placed into an appropriate test tube for scintillation counting. Tissues collected included heart, liver, kidneys, lungs, small intestine, large intestine, brain, bladder, spleen, stomach, pancreas, bone, thyroid, tail, urine, and feces. Tissues were weighed and then counted with a calibrated gamma counter (Packard, Cobra II model 5002) using three energy windows: 60-120 keV (window A), 180-260 keV (window B), and 400-480 keV (window C). Counting was performed both immediately after sacrifice and after 7 days; counts were decay corrected from the time of injection and then converted to the percentage of injected dose (% ID) per gram of tissue (% ID/g). […]
The biodistribution studies of [^225Ac(DOTA)]^− and ^225Ac(NO3)3 were carried out as described above for [^225Ac(macropa)]^+, with the following modifications. [^225Ac(DOTA)^− was prepared by adding ^225Ac(NO3)3 (338 μL, 1.1 MBq) to a solution of DOTA (100 μg, 20 mg/mL in H2O) in NH4OAc (467 μL, 0.15 M, pH 7). The pH of the solution was adjusted to 7 using NH4OAc (150 μL, 1 M, pH 7) and the solution was heated at 85° C. for 45 min. RCY >99% was confirmed by TLC as described above. [^225Ac(DOTA)]^− was diluted with saline to a final concentration of 0.05 MBq/100 μL, and 100 μL were injected into each mouse. ^225Ac(NO3)3 (˜58 μL, 0.4 MBq) was diluted and injected in the same manner as [^225Ac(DOTA)]^−. One mouse that was to be euthanized at the 5 h time point in the [^225Ac(DOTA)]^− study died shortly after injection. In the same manner, one mouse that was to be euthanized at the 1 h time point in the ^225Ac(NO3)3 study died.
The in vivo stability [^225Ac(macropa)]^+ was examined by comparing its biodistribution to those of ^225Ac(NO3)3 and [^225Ac(DOTA)]^−. C57BL/6 mice were injected via tail vein with 10-50 kBq of each radiometal complex and were sacrificed after 15 min, 1 h, or 5 h. The amount of ^225Ac retained in each organ was quantified by gamma counting and reported as the percent of injected dose per gram of tissue (% ID/g). The results of these studies are compiled in Tables 1-3. Inadequate stability of an ^225Ac complex leading to the loss of radioisotope in vivo is manifested by the accumulation of ^225Ac in the liver, spleen, and bone of mice.^[11,12,32] […] The biodistribution profile of [^225Ac(macropa)]^+ (FIG. 3B) differs markedly from that of ^225Ac(NO3)3. […] Its biodistribution profile was similar to that of [^225Ac(DOTA)]^− (FIG. 3C), which has been previously shown to retain ^225Ac^3+ in vivo.^[7]

[1] = 15 min post i.v. injection, energy window A (60-120 keV)
[2] = 15 min post i.v. injection, energy window B (180-260 keV)
[3] = 15 min post i.v. injection, energy window C (400-480 keV)
[4] = 1 h post i.v. injection, energy window A (60-120 keV)
[5] = 1 h post i.v. injection, energy window B (180-260 keV)

Question: Which “Organ distribution: bladder” value [1] does the source give for `O=C([O-])c1cccc(CN2CCOCCOCCN(Cc3cccc(C(=O)[O-])n3)CCOCCOCC2)n1.[225Ac+3]` [[^225Ac(macropa)]^+] here?
Answer: 46.74 % ID/g

Question: And the “Organ distribution: blood” value [1]?
Answer: 5.11 % ID/g

Question: What about the “Organ distribution: bone (femur + joint)” value [1] of the same compound?
Answer: 2.52 % ID/g

Question: And the “Organ distribution: brain” value [1]?
Answer: 0.26 % ID/g

Question: What about the “Organ distribution: feces” value [1] of the same compound?
Answer: 0.91 % ID/g

Question: What about the “Organ distribution: heart” value [1] of the same compound?
Answer: 2.19 % ID/g

Question: What about the “Organ distribution: kidneys” value [1] of the same compound?
Answer: 27.55 % ID/g

Question: And the “Organ distribution: large intestines” value [1]?
Answer: 2.40 % ID/g

Question: And the “Organ distribution: liver” value [1]?
Answer: 2.28 % ID/g

Question: And the “Organ distribution: lungs” value [1]?
Answer: 5.98 % ID/g

Question: What about the “Organ distribution: pancreas” value [1] of the same compound?
Answer: 1.46 % ID/g

Question: What about the “Organ distribution: small intestines” value [1] of the same compound?
Answer: 2.64 % ID/g

Question: What about the “Organ distribution: spleen” value [1] of the same compound?
Answer: 2.52 % ID/g

Question: And the “Organ distribution: stomach” value [1]?
Answer: 2.97 % ID/g

Question: And the “Organ distribution: tail” value [1]?
Answer: 8.84 % ID/g

Question: What about the “Organ distribution: thyroids” value [1] of the same compound?
Answer: 28.23 % ID/g

Question: What about the “Organ distribution: urine” value [1] of the same compound?
Answer: 1378.82 % ID/g

Question: And the “Organ distribution: bladder” value [2]?
Answer: 47.64 % ID/g

Question: What about the “Organ distribution: blood” value [2] of the same compound?
Answer: 5.23 % ID/g

Question: And the “Organ distribution: bone (femur + joint)” value [2]?
Answer: 2.69 % ID/g

Question: And the “Organ distribution: brain” value [2]?
Answer: 0.23 % ID/g

Question: What about the “Organ distribution: feces” value [2] of the same compound?
Answer: 1.04 % ID/g

Question: And the “Organ distribution: heart” value [2]?
Answer: 2.39 % ID/g

Question: And the “Organ distribution: kidneys” value [2]?
Answer: 27.86 % ID/g

Question: And the “Organ distribution: large intestines” value [2]?
Answer: 2.53 % ID/g

Question: What about the “Organ distribution: liver” value [2] of the same compound?
Answer: 2.17 % ID/g

Question: What about the “Organ distribution: lungs” value [2] of the same compound?
Answer: 5.83 % ID/g

Question: And the “Organ distribution: pancreas” value [2]?
Answer: 1.63 % ID/g

Question: And the “Organ distribution: small intestines” value [2]?
Answer: 2.59 % ID/g

Question: What about the “Organ distribution: spleen” value [2] of the same compound?
Answer: 2.55 % ID/g

Question: And the “Organ distribution: stomach” value [2]?
Answer: 3.29 % ID/g

Question: What about the “Organ distribution: tail” value [2] of the same compound?
Answer: 9.39 % ID/g

Question: And the “Organ distribution: thyroids” value [2]?
Answer: −2.22 % ID/g

Question: What about the “Organ distribution: urine” value [2] of the same compound?
Answer: 1541.60 % ID/g

Question: And the “Organ distribution: bladder” value [3]?
Answer: 64.68 % ID/g

Question: What about the “Organ distribution: blood” value [3] of the same compound?
Answer: 6.49 % ID/g

Question: And the “Organ distribution: bone (femur + joint)” value [3]?
Answer: 3.74 % ID/g

Question: What about the “Organ distribution: brain” value [3] of the same compound?
Answer: 0.17 % ID/g

Question: What about the “Organ distribution: feces” value [3] of the same compound?
Answer: 1.26 % ID/g

Question: What about the “Organ distribution: heart” value [3] of the same compound?
Answer: 2.87 % ID/g

Question: What about the “Organ distribution: kidneys” value [3] of the same compound?
Answer: 33.46 % ID/g

Question: What about the “Organ distribution: large intestines” value [3] of the same compound?
Answer: 3.02 % ID/g

Question: What about the “Organ distribution: liver” value [3] of the same compound?
Answer: 2.72 % ID/g

Question: What about the “Organ distribution: lungs” value [3] of the same compound?
Answer: 7.55 % ID/g

Question: And the “Organ distribution: pancreas” value [3]?
Answer: 3.00 % ID/g

Question: And the “Organ distribution: small intestines” value [3]?
Answer: 3.46 % ID/g

Question: And the “Organ distribution: spleen” value [3]?
Answer: 3.79 % ID/g

Question: And the “Organ distribution: stomach” value [3]?
Answer: 3.45 % ID/g

Question: What about the “Organ distribution: tail” value [3] of the same compound?
Answer: 11.75 % ID/g

Question: What about the “Organ distribution: thyroids” value [3] of the same compound?
Answer: −6.46 % ID/g

Question: And the “Organ distribution: urine” value [3]?
Answer: 2387.66 % ID/g

Question: What about the “Organ distribution: bladder” value [4] of the same compound?
Answer: 6.23 % ID/g

Question: And the “Organ distribution: blood” value [4]?
Answer: 0.40 % ID/g

Question: What about the “Organ distribution: bone (femur + joint)” value [4] of the same compound?
Answer: 0.31 % ID/g

Question: And the “Organ distribution: brain” value [4]?
Answer: 0.12 % ID/g

Question: And the “Organ distribution: feces” value [4]?
Answer: 0.28 % ID/g

Question: What about the “Organ distribution: heart” value [4] of the same compound?
Answer: 0.31 % ID/g

Question: What about the “Organ distribution: kidneys” value [4] of the same compound?
Answer: 13.36 % ID/g

Question: And the “Organ distribution: large intestines” value [4]?
Answer: 0.36 % ID/g

Question: What about the “Organ distribution: liver” value [4] of the same compound?
Answer: 0.75 % ID/g

Question: And the “Organ distribution: lungs” value [4]?
Answer: 0.51 % ID/g

Question: What about the “Organ distribution: pancreas” value [4] of the same compound?
Answer: 0.19 % ID/g

Question: What about the “Organ distribution: small intestines” value [4] of the same compound?
Answer: 1.10 % ID/g

Question: And the “Organ distribution: spleen” value [4]?
Answer: 0.51 % ID/g

Question: What about the “Organ distribution: stomach” value [4] of the same compound?
Answer: 0.41 % ID/g

Question: What about the “Organ distribution: tail” value [4] of the same compound?
Answer: 1.82 % ID/g

Question: And the “Organ distribution: thyroids” value [4]?
Answer: 3.18 % ID/g

Question: And the “Organ distribution: urine” value [4]?
Answer: 489.11 % ID/g

Question: And the “Organ distribution: bladder” value [5]?
Answer: 5.92 % ID/g

Question: And the “Organ distribution: blood” value [5]?
Answer: 0.39 % ID/g

Question: What about the “Organ distribution: bone (femur + joint)” value [5] of the same compound?
Answer: 0.17 % ID/g

Question: And the “Organ distribution: brain” value [5]?
Answer: 0.12 % ID/g

Question: And the “Organ distribution: feces” value [5]?
Answer: 0.27 % ID/g

Question: And the “Organ distribution: heart” value [5]?
Answer: 0.20 % ID/g

Question: What about the “Organ distribution: kidneys” value [5] of the same compound?
Answer: 12.97 % ID/g

Question: What about the “Organ distribution: large intestines” value [5] of the same compound?
Answer: 0.22 % ID/g

Question: And the “Organ distribution: liver” value [5]?
Answer: 0.70 % ID/g
